A melting point compilation (Tetko et al.; mined from patent text by program, amines drawn as free bases though some values may be those of a salt)

| Structure (SMILES) | melting point [°C] |
| --- | --- |
| COc1ccc(N2CCN(c3ccc(-n4ccn(CC(F)(F)F)c4=O)cc3)CC2)cc1 | 224 |
| CS(=O)(=O)OCc1nc2ccc(F)cc2s1 | 68 to 72 |
| CC(C)NC(=O)C(C)(F)c1ccc(OS(=O)(=O)C(F)(F)F)cc1 (stereo not drawn) | 90 to 92 |
| O=C(O)c1ccc(CCCc2c(CCNS(=O)(=O)Cc3ccc(Cl)c(Cl)c3)n(C(c3ccccc3)c3ccccc3)c3ccc(Cl)cc23)cc1 | 190 |
| Cc1cc(I)ccc1NC1=CC2=NCN(C)C2=CC1(F)C(=O)NOCC(O)CO (stereo not drawn) | 212 to 213 |
| CSC(=N[N+](=O)[O-])NCc1ccccc1 | 77 to 80 |
| N#Cc1ccc(Nc2nc(Cl)ccc2[N+](=O)[O-])cc1 | 175 to 178 |
| O=c1c2c(CCc3ccncc3)n[nH]c2c2cccnc2n1-c1ccccc1 | 267 to 269 |
| COc1c(Cl)c(-c2ccc(C(C)C)cc2)cc2oc(=O)c(C)c(C)c12 | 168 |
| Cc1ccc(S(=O)(=O)Nc2ccc(C(=O)CN3CCN(c4ccncc4)CC3)cc2)cc1 | 168 to 170 |
| Oc1ccc(-c2nn(-c3ccc(Br)cc3)c3c(C(F)(F)F)cccc23)cc1 | 176 to 177 |
| Cc1cc2c(cc1O)C(C)(C)CC1(CC(C)(C)c3cc(OCCCO)c(C)cc3O1)O2 (stereo not drawn) | 175 to 177 |
| COc1ccc2c(c1)CCC1C2CCC2(C)C1CCC2N(C)CCOCCO (stereo not drawn) | 102 |
| COC(=O)C1(N2CCCCC2)CCN(Cc2ccccc2)CC1 | 84.7 |
| CN1CCCC1=Cc1ccc(Cl)cc1 | 63 |
| CCOc1nn(Cc2ccnc(OCc3nc(-c4ccccc4)oc3C)c2)cc1CCC(=O)O | 114 to 115 |
| CCn1c(=O)c2[nH]c(C(F)=Cc3ccccc3)nc2n(CC)c1=O | > 280 |
| Nc1n[nH]c2nc3cc(O)ccc3cc12 | > 300 |
| Cc1ccc(-c2c(C(=O)Nc3nccs3)nc(-c3cccc4ccccc34)n2CCN2CCOCC2)cc1 | 226 to 227 |
| N#CC1=C(c2cccs2)Nc2n[nH]cc2C1c1cccc(C#N)c1Br (stereo not drawn) | > 280 |
| CN1C(=O)C2(COc3cc4c(cc32)OCCO4)c2c(C(N)=O)cccc21 (stereo not drawn) | > 250 |
| C1=C(c2ccc3[nH]ccc3c2)CCN(Cc2c[nH]c3ncccc23)C1 | 187 to 189 |
| CCOC(=O)c1c(C)cc(O)c(C(=O)OCC)c1O | 61 to 62 |
| CN1C2C=C(c3c[nH]c4ccc(NC(=N)c5cccs5)cc34)CC1CC2 (stereo not drawn) | 93 to 95 |

The remaining lines, values ahead:

| melting point [°C] | Structure (SMILES) |
| --- | --- |
| 113 | CCN1CCN(CCCN2CC[C@H](NC(=O)c3cc(Cl)c(N)cc3OC)[C@H](OC)C2)C1=O (relative stereo) |
| 112 to 114 | Cc1ccccc1N1CCN(S(=O)(=O)CC23CCC(CC2=O)C3(C)C)CC1 (stereo not drawn) |
| 217 to 218 | CCc1ccc2nc(C)[nH]c2c1N1CC(CNC(C)=O)OC1=O (stereo not drawn) |
| 138 | CC(=NNC(=O)c1ccccc1)c1sc(C)nc1C |
| 101 to 102 | CC(O)CN1CCNC1=S (stereo not drawn) |
| 300 to 301 | CN(C)CCn1c(=O)c2ccc(N)cc2c2cnc3cc4c(cc3c21)OCO4 |
| 312 | CCC(C)(C)c1cc(-c2ccc(C=C3SC(=O)NC3=O)cn2)cc2nc(C)oc12 |
| 98 to 101 | CC(C)c1cc(Oc2c(Cl)cc(C(F)(F)F)cc2Cl)n[nH]1 |
| 96 | O=C(O)Cc1ccc(OCCNC(=O)C2Cc3ccccc3N2S(=O)(=O)c2ccc(-c3cccc(C(F)(F)F)c3)cc2)c(Cl)c1 (stereo not drawn) |
| 108 to 110 | CCOC(=O)c1cc(SCc2ccccc2)c(Cc2ccccc2)c(S(N)(=O)=O)c1 |
| 50 to 53 | C#CCN(c1nnc(C)c2ccccc12)c1nc2ccccc2n1-c1ccccc1 |
| 147 to 148 | CCCCC=NNC1=NCCc2ccccc21 |
| 215 to 218 | O=C(O)C(=O)Cc1ccc(-c2ccccc2)cc1 |
| 195 | COC(=O)C1=C(C)NN=C(c2ccco2)C1c1ccccc1Cl (stereo not drawn) |
